Laboratory results: paper PMC5515971, “Utility of spherical human liver microtissues for prediction of clinical drug-induced liver injury” (Archives of Toxicology, 2017)
Where two headings read alike, the source gives them in different places.

Key:
[1] = test system: 3D human liver microtissues (hLiMT); experiment: Cytotoxicity (cellular ATP, CellTiter-Glo 2.0) in 3D human liver microtissues, 14 day repeat-dose treatment
[2] = cited from earlier work
[3] = test system: primary human hepatocytes (PHH); experiment: Cytotoxicity (cellular ATP, CellTiter-Glo) in 2D plated primary human hepatocytes, 48 h treatment; type: cell-based; conditions: for IC50: read-out: Geomean IC50;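 on all read-outs here: 384-well plates, luminescence read-out, normalized to vehicle wells with 1% DMSO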
Method: Cryopreserved PHH (lot IZT) were thawed in InVitroGro HT™ thawing media at 37 °C, pelleted, and resuspended. Viable hepatocytes were counted by Trypan blue exclusion and plated in black-walled, BioCoat™ collagen 384-well plates at 13,000 cells/well in InVitroGro CP™ plating media supplemented with 1% Torpedo™ Antibiotic Mix and 5% fetal bovine serum and incubated overnight for 18 h. Cells were then treated with compounds for 48 h diluted in InVitroGro HI™ incubation media containing 1% Torpedo Antibiotic Mix, 10% fetal bovine serum, and 1% DMSO. […] Luminescence was determined on an EnVision™ Muliplate Reader (PerkinElmer, Waltham, MA, USA), and data were normalized to vehicle (1% DMSO) control wells.

[4] = test system: 3D human liver microtissues (hLiMT); experiment: Cytotoxicity (cellular ATP) in 3D human liver microtissues, 5-6 days treatment; type: cell-based; conditions: read-out: IC50 SHORT;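 further: Hanging-drop spheroids, seven-point dilution series, re-dosed on day 3, CellTiter-Glo 2.0 luminescence, normalized to 0.5 or 1% DMSO vehicle controls on the same plate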
[5] = ref Chen et al 2016 / Chen et al 2011; cited from earlier work
[6] = cited from earlier work; for DILI category: clinical, from literature and product labels
[7] = Homo sapiens, Hepatocyte, 336 h, read-out: Geomean IC50 [µM]
[8] = human Cmax total, used for IC50/Cmax
[9] = human total plasma Cmax, ref literature values
[10] = Hepatocyte, 2D primary human hepatocytes (lot IZT), 48 h treatment, total cellular ATP content
[11] = Homo sapiens, hLiMT, 5/6 days, ATP content
[12] = Table 1, ref Garside et al. (2014)
[13] = clinical DILI severity category, 1-5
[14] = table S-4, ref Garside et al. 2014
[15] = Homo sapiens, 336 h, read-out: IC50 LONG

Compound | IC50 [1, 7] [µM] | Cmax [2, 8] [µM] | Cmax [2, 9] [µM] | IC50 [3, 10] [µM] | IC50 [4, 11] [µM] | FDA DILI Classification DILI severity score [5] | LTKB DILI classification [5] | DILI severity category [6, 12] | DILI severity category [6, 13] | DILI category ([6]; ref Garside et al. 2014) | DILI severity category [6, 14] | also measured
CN1C[C@H](CNC(=O)OCc2ccccc2)C[C@@H]2c3cccc4c3c(cn4C)C[C@H]21 [Metergoline] | 7.8 | 0.07 | 0.07 | 20.1 | 12.3 | – | – | – | – | – | – | classification at 100 μM IC50 threshold ([1]; hLiMT 14 days): false positives; classification at 100 μM IC50 threshold ([3]; PHH 48 h): false positives
CC(=O)N1CCN(c2ccc(OCC3COC(Cn4ccnc4)(c4ccc(Cl)cc4Cl)O3)cc2)CC1 (stereo not drawn) [Ketoconazole] | 4.6 | 11.3 | 11.3 | 47.2 | 8.5 | 8 | most DILI concern | 1: Severe clinical DILI (N = 23) | 1. Severe Clinical DILI | 1. Severe Clinical DILI | 1 | –
CN(C)C(=N)N=C(N)N [Metformin] | > 100 | 7.74 | 7.74 | > 100 | 100 | 0 | less DILI concern | 3: Low clinical DILI concern (N = 23) | 3. Low Clinical DILI Concern | 3. Low Clinical DILI Concern | 3 | –
Fc1ccc([C@@H]2CCNC[C@H]2COc2ccc3c(c2)OCO3)cc1 [Paroxetine] | 12 | 0.2 | 0.2 | 15.3 | 21.3 | 8 | less DILI concern | 2: High clinical DILI concern (N = 23) | 2. High Clinical DILI Concern | 2. High Clinical DILI Concern | 2 | –
CCN(CC)CCCC(C)Nc1c2ccc(Cl)cc2nc2ccc(OC)cc12 (stereo not drawn) [Quinacrine] | > 2 | – | 258 | 7.3 | 3.7 | – | – | – | – | – | – | IC50 [1, 15]: 2 µM
C[C@]12CC[C@@H]3c4ccc(O)cc4CC[C@H]3[C@@H]1CC[C@@H]2O [beta-Estradiol] | – | 0.0006 | 0.0006 | – | – | – | – | – | – | – | – | IC50 ([1]; read-out: Geomean IC50, decrease in total cellular ATP content, hLiMT treated for 14 days, hepatocyte lot IZT (except Dexamethasone) co-cultured with NPCs, n=1 or geometric mean): 13.5 µM; IC50 ([3]; 2D primary human hepatocytes (lot IZT), 48 h treatment, total cellular ATP content): > 100 µM; IC50 ([4]; hLiMT, 5/6 days, ATP content): 42 µM
CN(Cc1cnc2nc(N)nc(N)c2n1)c1ccc(C(=O)N[C@@H](CCC(=O)O)C(=O)O)cc1 [Methotrexate] | > 100 | 5 | 5 | > 100 | 100 | 3 | most DILI concern | 1: Severe clinical DILI (N = 23) | 1. Severe Clinical DILI | 1. Severe Clinical DILI | 1 | –
Cn1c(=O)c2[nH]cnc2n(C)c1=O [Theophylline] | > 100 | – | – | – | – | – | – | – | – | – | – | Cmax ([2]; human, in vivo): 83.8 µM; IC50 ([3]; Homo sapiens, Hepatocyte, 48 h): > 100 µM; IC50 ([4]; Homo sapiens): 100 µM
CC1(C)S[C@@H]2[C@H](NC(=O)COc3ccccc3)C(=O)N2[C@H]1C(=O)O [Penicillin V] | > 100 | 14.3 | 14.3 | > 100 | 100 | – | – | – | – | – | – | –
CCOC(=O)CN[C@@H](C(=O)N1CC[C@H]1C(=O)NCc1ccc(/C(N)=N\O)cc1)C1CCCCC1 [Ximelagatran] | ~151 | 0.45 | 0.45 | > 200 | 200 | – | – | – | – | – | – | IC50 ([1]; Homo sapiens, 336 h, read-out: IC50 (ATP-assay)): 121 µM; IC50 [1, 15]: 151 µM
COc1ccc2c(c1)c(CC(=O)O)c(C)n2C(=O)c1ccc(Cl)cc1 [Indomethacin] | > 100 | 8.4 | 8.38 | > 100 | 100 | – | – | – | – | – | – | –
CC1=C(/C=C/C(C)=C/C=C/C(C)=C/C(=O)O)C(C)(C)CCC1 [Tretinoin] | > 17 | 1.33 | 1.33 | > 100 | 29.2 | 3 | Ambiguous DILI concern | 3: Low clinical DILI concern (N = 23) | 3. Low Clinical DILI Concern | 3. Low Clinical DILI Concern | 3 | IC50 [1, 15]: 17 µM
O=C1CN(/N=C/c2ccc([N+](=O)[O-])o2)C(=O)N1 [Nitrofurantoin] | – | 21 | 21 | – | 100 | 8 | most DILI concern | 2: High clinical DILI concern (N = 23) | 2. High Clinical DILI Concern | 2. High Clinical DILI Concern | 2 | –
Cc1cnc(NC(=O)C2=C(O)c3ccccc3S(=O)(=O)N2C)s1 [Meloxicam] | > 100 | 5.21 | 5.21 | > 100 | 100 | – | – | – | – | – | – | –
[H]/N=C(/N)N/C(=N/[H])NCCc1ccccc1 [Phenformin] | < 12.5 | 0.63 | 0.63 | 5.1 | 7.7 | – | – | 3: Low clinical DILI concern (N = 23) | 3. Low Clinical DILI Concern | 3. Low Clinical DILI Concern | 3 | IC50 [1, 15]: 12.5 µM
CC(C)C(=O)Nc1ccc([N+](=O)[O-])c(C(F)(F)F)c1 [Flutamide] | 25.7 | 5.4 | 5.43 | 73 | 12.5 | 8 | most DILI concern | 1: Severe clinical DILI (N = 23) | 1. Severe Clinical DILI | 1. Severe Clinical DILI | 1 | change of IC50 with prolonged exposure ([1]; hLiMT 14 days versus 5-6 days): higher IC50 value
CN(C)CCC(c1ccc(Cl)cc1)c1ccccn1 (stereo not drawn) [Chlorpheniramine] | – | 0.044 | 0.0437 | – | 100 | 0 | no DILI concern | 3: Low clinical DILI concern (N = 23) | 3. Low Clinical DILI Concern | 3. Low Clinical DILI Concern | 3 | –
COc1ccccc1Oc1c(NS(=O)(=O)c2ccc(C(C)(C)C)cc2)nc(-c2ncccn2)nc1OCCO [Bosentan] | ~93 | – | – | > 200 | 100 | 7 | most DILI concern | 1: Severe clinical DILI (N = 23) | 1. Severe Clinical DILI | 1. Severe Clinical DILI | 1 | IC50 [1, 15]: 93 µM; cytotoxicity IC50 detected ([3]; PHH 48 h, in words): no IC50 values were detected
